# Biological target: KRasG12C (M1-K169, biotinylated on the N-terminus) (Homo sapiens (Human), UniProt P01116, G12C)
# Assay: Covalent competition assay: scintillation proximity assay (SPA) quantifying covalent modification of KRASG12C
# Format: binding
# Conditions: competition with radiolabeled covalent probe (Compound B/Compound A), 2 hours incubation, 10 nM KRasG12C
# Outline: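 Test compounds compete with a radiolabeled covalent probe for modification of N-terminally biotinylated KRasG12C(M1-K169):GDP, final 10 nM protein, 25 nM radio-ligand, 475 nM unlabelled ligand, 2 h with agitation in 20 mM Tris-HCl pH 7.5, 150 mM NaCl, 0.1 mM MgCl2, 0.01% Tween-20.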
row,IC50 [nM],SMILES
1,> 5000,"C=CC(=O)N1CC2(CC(n3nc(N4CC[C@@H](CN5CC6C5CCN6C5COC5)CC4(C)C)c(-c4c(Cl)c(Cl)cc5[nH]ncc45)c3C)C2)C1 (single isomer, unassigned) [Example 278a, 1-(6-(4-(5,6-dichloro-1H-indazol-4-yl)-3-((R)-2,2-dimethyl-4-(((1S*,5S*)-2-(oxetan-3-yl)-2,6-diazabicyclo[3.2.0]heptan-6-yl)methyl)piperidin-1-yl)-5-methyl-1H-pyrazol-1-yl)-2-azaspiro[3.3]heptan-2-yl)prop-2-en-1-one]"
2,254,"C=CC(=O)N1CC2(CC(n3nc(N4CCC(N5CCOCC5)CC4(C)C)c(-c4c(Cl)c(C)cc5[nH]ncc45)c3C)C2)C1 (single isomer, unassigned) [Example 35a, 1-(6-(4-(5-chloro-6-methyl-1H-indazol-4-yl)-3-(2,2-dimethyl-4-morpholinopiperidin-1-yl)-5-methyl-1H-pyrazol-1-yl)-2-azaspiro[3.3]heptan-2-yl)prop-2-en-1-one]"
3,6,"C=CC(=O)N1CC2(CC(n3nc(N4CC[C@@H](CN5C[C@@H]6CN(C(C)=O)C[C@@H]6C5)CC4(C)C)c(-c4c(Cl)c(Cl)cc5[nH]ncc45)c3C)C2)C1 (single isomer, unassigned) [Example 295b]"
4,19,"C=CC(=O)N1CC2(CC(n3nc(N4CCC(C(=O)N(C)C)CC4(C)C)c(-c4c(Cl)c(C)cc5[nH]ncc45)c3C)C2)C1 (single isomer, unassigned) [Example 98b, 1-(1-(2-acryloyl-2-azaspiro[3.3]heptan-6-yl)-4-(5-chloro-6-methyl-1H-indazol-4-yl)-5-methyl-1H-pyrazol-3-yl)-N,N,2,2-tetramethylpiperidine-4-carboxamide]"
5,3100,"C=CC(=O)N1CC2(CC(n3nc(N4CC[C@@H](CN5CCOC6CS(=O)(=O)CC65)CC4(C)C)c(-c4c(Cl)c(Cl)cc5[nH]ncc45)c3C)C2)C1 (single isomer, unassigned) [Example 266a, 1-(6-(4-(5,6-dichloro-1H-indazol-4-yl)-3-((R)-4-(((4aR*,7aS*)-6,6-dioxidohexahydro-4H-thieno[3,4-b][1,4]oxazin-4-yl)methyl)-2,2-dimethylpiperidin-1-yl)-5-methyl-1H-pyrazol-1-yl)-2-azaspiro[3.3]heptan-2-yl)prop-2-en-1-one]"
6,3900,"C=CC(=O)N1CC2(CC(n3nc(N4CCN(C[C@@H]5COCCO5)CC4(C)C)c(-c4c(Cl)c(Cl)cc5[nH]ncc45)c3C)C2)C1 (single isomer, unassigned) [Example 172a]"
7,747,"C=CC(=O)N1CC2(CC(n3nc(N4CC[C@@H](CN5CC6COCC(C5)O6)CC4(C)C)c(-c4c(Cl)c(Cl)cc5[nH]ncc45)c3C)C2)C1 (single isomer, unassigned) [Example 308a]"
8,668,"C=CC(=O)N1CC2(CC(n3nc(N4CCC(N(C)C5COC5)CC45CCC5)c(-c4c(Cl)c(C)cc5[nH]ncc45)c3C)C2)C1 (single isomer, unassigned) [Example 51b, 1-(6-(4-(5-chloro-6-methyl-1H-indazol-4-yl)-5-methyl-3-(8-(methyl(oxetan-3-yl)amino)-5-azaspiro[3.5]nonan-5-yl)-1H-pyrazol-1-yl)-2-azaspiro[3.3]heptan-2-yl)prop-2-en-1-one]"
9,239,"C=CC(=O)N1CC2(CC(n3nc(N4CCN(CC(F)(F)F)CC4(C)C)c(-c4c(Cl)c(C)cc5[nH]ncc45)c3C)C2)C1 (single isomer, unassigned) [Example 68b, 1-(6-(4-(5-chloro-6-methyl-1H-indazol-4-yl)-3-(2,2-dimethyl-4-(2,2,2-trifluoroethyl)piperazin-1-yl)-5-methyl-1H-pyrazol-1-yl)-2-azaspiro[3.3]heptan-2-yl)prop-2-en-1-one]"
10,7,"C=CC(=O)N1CC2(CC(n3nc(N4CC[C@@H](CN5CCCN(C(C)=O)CC5)CC4(C)C)c(-c4c(Cl)c(Cl)cc5[nH]ncc45)c3C)C2)C1 (single isomer, unassigned) [Example 315b]"
11,> 50000,"C=CC(=O)N1CC2(CC(n3nc(N4CCN(C(C)=O)CC4)c(-c4c(Cl)ccc5[nH]ncc45)c3C)C2)C1C (single isomer, unassigned) [Example 195b, 1-(6-(3-(4-Acetylpiperazin-1-yl)-4-(5-chloro-1H-indazol-4-yl)-5-methyl-1H-pyrazol-1-yl)-1-methyl-2-azaspiro[3.3]heptan-2-yl)prop-2-en-1-one]"
12,50000,"C=CC(=O)N1CC2(CC(n3nc(N4CCS(=O)(=O)CC4(C)C)c(-c4c(Cl)c(C)cc5[nH]ncc45)c3C)C2)C1 (single isomer, unassigned) [Example 82a, 1-(6-(4-(5-chloro-6-methyl-1H-indazol-4-yl)-3-(3,3-dimethyl-1,1-dioxidothiomorpholino)-5-methyl-1H-pyrazol-1-yl)-2-azaspiro[3.3]heptan-2-yl)prop-2-en-1-one]"
13,> 5000,"C=CC(=O)N1CC2(CC(n3nc(N4CCN(Cc5ccccc5)CC45CCC5)c(-c4c(Cl)c(C)cc5[nH]ncc45)c3C)C2)C1 (single isomer, unassigned) [Example 100a, 1-(6-(3-(8-benzyl-5,8-diazaspiro[3.5]nonan-5-yl)-4-(5-chloro-6-methyl-1H-indazol-4-yl)-5-methyl-1H-pyrazol-1-yl)-2-azaspiro[3.3]heptan-2-yl)prop-2-en-1-one]"
14,4100,"C=CC(=O)N1CC2(CC(n3nc(N4CCN(CC5COCCOC5)CC45CCC5)c(-c4c(Cl)c(C)cc5[nH]ncc45)c3C)C2)C1 (single isomer, unassigned) [Example 185a, 1-(6-(3-(8-((1,4-dioxepan-6-yl)methyl)-5,8-diazaspiro[3.5]nonan-5-yl)-4-(5-chloro-6-methyl-1H-indazol-4-yl)-5-methyl-1H-pyrazol-1-yl)-2-azaspiro[3.3]heptan-2-yl)prop-2-en-1-one]"
15,> 50000,"C=CC(=O)N1CC2(CC(n3nc(N4CCc5c(cnn5C)C4)c(-c4c(Cl)c(C)cc5[nH]ncc45)c3C)C2)C1 (single isomer, unassigned) [Example 11a, 1-(6-(4-(5-chloro-6-methyl-1H-indazol-4-yl)-5-methyl-3-(1-methyl-1,4,6,7-tetrahydro-5H-pyrazolo[4,3-c]pyridin-5-yl)-1H-pyrazol-1-yl)-2-azaspiro[3.3]heptan-2-yl)prop-2-en-1-one]"
16,4900,"C=CC(=O)N1CC2(CC(n3nc(N4CC[C@@H](CN5CCN6CCOC[C@H]6C5)CC4(C)C)c(-c4c(Cl)c(Cl)cc5[nH]ncc45)c3C)C2)C1 (single isomer, unassigned) [Example 288a]"
17,> 5000,"C=CC(=O)N1CC2(CC(n3nc(N4CC[C@@H](CN(C)S(=O)(=O)N5CCN(C)CC5)CC4(C)C)c(-c4c(Cl)c(Cl)cc5[nH]ncc45)c3C)C2)C1 (single isomer, unassigned) [Example 304a]"
18,14,"C=CC(=O)N1CC2(CC(n3nc(N4CC[C@@H](CN5CCN(C6COC6)CC5)CC4(C)C)c(-c4c(Cl)c(F)cc5[nH]ncc45)c3C)C2)C1 (single isomer, unassigned) [Example 245b]"
19,8,"C=CC(=O)N1CC2(CC(n3nc(N4CC[C@@H](CN5CC6(CCS(=O)(=O)C6)C5)CC4(C)C)c(-c4c(Cl)c(Cl)cc5[nH]ncc45)c3C)C2)C1 (single isomer, unassigned) [Example 254b]"
20,46,"C=CC(=O)N1CC2(CC(n3nc(N4CCN(C5CCOCC5)C[C@]4(C)C(F)F)c(-c4c(Cl)c(C)cc5[nH]ncc45)c3C)C2)C1 (single isomer, unassigned) [Example 151a]"
21,10,"C=CC(=O)N1CC2(CC(n3nc(N4CC[C@@H](CN5CCN6CCOC[C@H]6C5)CC4(C)C)c(-c4c(Cl)c(Cl)cc5[nH]ncc45)c3C)C2)C1 (single isomer, unassigned) [Example 288b]"
22,846,"C=CC(=O)N1CC2(CC(n3nc(N4CCN(C5COC5)C5COCC54)c(-c4c(Cl)c(C)cc5[nH]ncc45)c3C)C2)C1 (single isomer, unassigned) [Example 136a, 1-(6-(4-(5-chloro-6-methyl-1H-indazol-4-yl)-5-methyl-3-((4aS*,7aS*)-4-(oxetan-3-yl)hexahydrofuro[3,4-b]pyrazin-1(2H)-yl)-1H-pyrazol-1-yl)-2-azaspiro[3.3]heptan-2-yl)prop-2-en-1-one]"
23,351,"C=CC(=O)N1CC2(CC(n3nc(N4CCN(CCOC)CC45CCC5)c(-c4c(Cl)c(Cl)cc5[nH]ncc45)c3C)C2)C1 (single isomer, unassigned) [Example 76a, 1-(6-(4-(5,6-dichloro-1H-indazol-4-yl)-3-(8-(2-methoxyethyl)-5,8-diazaspiro[3.5]nonan-5-yl)-5-methyl-1H-pyrazol-1-yl)-2-azaspiro[3.3]heptan-2-yl)prop-2-en-1-one]"
24,> 5000,"C=CC(=O)N1CC2(CC(n3nc(N4CCN(C[C@@H]5COCCO5)C[C@@]4(C)C(F)F)c(-c4c(Cl)c(Cl)cc5[nH]ncc45)c3C)C2)C1 (single isomer, unassigned) [Example 105a]"
25,> 50000,"C=CC(=O)N1CC2(CC(n3nc(N4CCc5cnn(C)c5C4)c(-c4c(Cl)c(C)cc5[nH]ncc45)c3C)C2)C1 (single isomer, unassigned) [Example 14a, 1-(6-(4-(5-chloro-6-methyl-1H-indazol-4-yl)-5-methyl-3-(1-methyl-1,4,5,7-tetrahydro-6H-pyrazolo[3,4-c]pyridin-6-yl)-1H-pyrazol-1-yl)-2-azaspiro[3.3]heptan-2-yl)prop-2-en-1-one]"
26,< 5,"C=CC(=O)N1CC2(CC(n3nc(N4CCN(C5CCOCC5)C[C@]4(C)COC)c(-c4c(Cl)c(Cl)cc5[nH]ncc45)c3C)C2)C1 (single isomer, unassigned) [Example 150b]"
27,296,"C=CC(=O)N1CC2(CC(n3nc(N4CCC(N(CC)C5COC5)CC4(C)C)c(-c4c(Cl)c(C)cc5[nH]ncc45)c3C)C2)C1 (single isomer, unassigned) [Example 48a, 1-(6-(4-(5-chloro-6-methyl-1H-indazol-4-yl)-3-(4-(ethyl(oxetan-3-yl)amino)-2,2-dimethylpiperidin-1-yl)-5-methyl-1H-pyrazol-1-yl)-2-azaspiro[3.3]heptan-2-yl)prop-2-en-1-one]"
